Results from patent US8815872B2, “Macrocyclics pyrimidines as aurora kinase inhibitors” (Merck Patent GmbH, priority 2008, dated 2014).
Read-outs that look alike come from different tables or passages of the source.

Tests used:
[1] = target: kinases (not incl. Aurora); test: Kinase inhibition profile (not incl. Aurora); format: biochemical; conditions: at 1 μM; hit means >79% inhibition
Description: (§1) The Aurora and other kinase assays described here were performed on two Caliper Life Sciences systems, the LC3000 and the Desktop Profiler. These provide data on enzyme activity via measurement of the relative amounts of phosphorylated or unphosphorylated fluorescently labelled substrate peptide at the end of an enzymatic reaction. These different states of peptide are resolved by applying a potential difference across the sample. The presence of a charged phosphate group on the product (as opposed to the substrate) causes a different peptide mobility between the two peptides. This is visualized by excitation of a fluorescent label on the substrate and product peptides and represented as peaks within the analysis software.
The Desktop Profiler utilizes the same principal as the LC 3000 for calculating percentage conversion of a substrate to product. Caliper Life Sciences provided proprietary flash frozen pre-made 384 well plates containing selected kinases. Each column in the 384 well plate contained a particular selected kinase. A second plate, the ‘substrate plate’ contained a mix of fluorescently labeled peptide substrate and ATP. These were arranged in columns so that transfer for substrate plate to enzyme plate provided the correct enzyme with the correct substrate/ATP concentration.
Compounds were added to a thawed enzyme plate in the desired format, in single concentrations. Reactions were initiated by transfer of the ubstrate/ATP mix from the substrate plate. The enzyme plate was incubated for 90 mins at 25 °C. The reaction was stopped by addition of […] of Stop Buffer (100 mM HEPES pH 7.5, 0.015% Brij-35, 10 mM EDTA (Sigma, E7889)).
Plates were read in a manner identical to that of the LC3000, and the ratio between substrate and product peaks provided the activity of the enzyme in that well. This was best represented by a plate heat map which colors each well by percent inhibition as compared to positive and negative controls (no inhibitors and no ATP respectively).

A549 = test: Cellular activity A549; format: cell-based; conditions: Homo sapiens
Method in brief: (§2)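 Cultured cells were exposed to compounds at various concentrations for roughly one hour to one week, enough to induce cell death or inhibit migration. Viable cells remaining after treatment were then counted.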

Aurora A = target: T1, Aurora A (Homo sapiens, UniProt O14965); test: Aurora A enzyme assay (Caliper LC3000 mobility shift); format: biochemical
T1 construct: N-terminal GST fusion with full length Aurora A (1-403 amino acids); purchased Carna Biosciences 05-101
T1 sequence (O14965 1-403): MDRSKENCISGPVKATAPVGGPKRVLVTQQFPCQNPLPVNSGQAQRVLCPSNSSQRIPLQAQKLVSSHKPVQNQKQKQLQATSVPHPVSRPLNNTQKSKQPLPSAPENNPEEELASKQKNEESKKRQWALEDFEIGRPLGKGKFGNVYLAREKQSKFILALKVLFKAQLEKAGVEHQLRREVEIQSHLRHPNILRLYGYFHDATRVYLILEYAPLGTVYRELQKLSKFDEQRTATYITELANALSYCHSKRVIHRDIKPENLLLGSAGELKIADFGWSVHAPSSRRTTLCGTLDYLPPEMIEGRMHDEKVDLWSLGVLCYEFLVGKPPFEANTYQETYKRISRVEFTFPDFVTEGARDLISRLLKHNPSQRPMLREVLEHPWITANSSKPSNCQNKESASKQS
Method in brief: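 Full-length N-terminal GST-Aurora A (0.067 ng/µl) with 15 µM ATP and 1 µM FITC-LRRASLG peptide in 100 mM HEPES pH 7.5, 1 mM MgCl2, 1 mM DTT, 0.015% Brij-35, 90 min at 25 °C, EDTA-stopped. Off-chip mobility shift measured percent substrate conversion; IC50 from sigmoidal dose-response fit.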

[2] = snar bond
MiaPaca2 = test: Cellular activity MiaPaca2; format: cell-based; conditions: Homo sapiens, MIA PaCa-2
Method in brief: as §2

Aurora B = Aurora B (Homo sapiens, UniProt Q96GD4); test: Aurora B enzyme assay (Caliper); format: biochemical
Sequence of Aurora B (Q96GD4 whole entry): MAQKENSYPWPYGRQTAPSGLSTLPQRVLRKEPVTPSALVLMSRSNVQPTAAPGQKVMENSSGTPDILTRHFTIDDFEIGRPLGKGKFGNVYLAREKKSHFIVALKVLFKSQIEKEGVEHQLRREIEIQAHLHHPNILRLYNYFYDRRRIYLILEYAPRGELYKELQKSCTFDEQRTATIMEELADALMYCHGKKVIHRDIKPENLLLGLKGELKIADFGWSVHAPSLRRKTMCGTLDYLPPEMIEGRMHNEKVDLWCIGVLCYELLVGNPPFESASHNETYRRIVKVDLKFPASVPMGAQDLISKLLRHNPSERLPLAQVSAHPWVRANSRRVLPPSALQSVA
Method in brief: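 Kinase activity was measured by microfluidic mobility-shift separation of phosphorylated and unphosphorylated fluorescently labelled substrate peptide at the end of the enzymatic reaction. Product and substrate were resolved by their charge difference and detected by fluorescence.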

FAK(h) = target: T2, FAK(h) (Homo sapiens, UniProt Q05397); test: Inhibition of other kinases IC50 (Table 2); format: biochemical
T2 construct: purchased Caliper Life Sciences
T2 sequence (Q05397 whole entry): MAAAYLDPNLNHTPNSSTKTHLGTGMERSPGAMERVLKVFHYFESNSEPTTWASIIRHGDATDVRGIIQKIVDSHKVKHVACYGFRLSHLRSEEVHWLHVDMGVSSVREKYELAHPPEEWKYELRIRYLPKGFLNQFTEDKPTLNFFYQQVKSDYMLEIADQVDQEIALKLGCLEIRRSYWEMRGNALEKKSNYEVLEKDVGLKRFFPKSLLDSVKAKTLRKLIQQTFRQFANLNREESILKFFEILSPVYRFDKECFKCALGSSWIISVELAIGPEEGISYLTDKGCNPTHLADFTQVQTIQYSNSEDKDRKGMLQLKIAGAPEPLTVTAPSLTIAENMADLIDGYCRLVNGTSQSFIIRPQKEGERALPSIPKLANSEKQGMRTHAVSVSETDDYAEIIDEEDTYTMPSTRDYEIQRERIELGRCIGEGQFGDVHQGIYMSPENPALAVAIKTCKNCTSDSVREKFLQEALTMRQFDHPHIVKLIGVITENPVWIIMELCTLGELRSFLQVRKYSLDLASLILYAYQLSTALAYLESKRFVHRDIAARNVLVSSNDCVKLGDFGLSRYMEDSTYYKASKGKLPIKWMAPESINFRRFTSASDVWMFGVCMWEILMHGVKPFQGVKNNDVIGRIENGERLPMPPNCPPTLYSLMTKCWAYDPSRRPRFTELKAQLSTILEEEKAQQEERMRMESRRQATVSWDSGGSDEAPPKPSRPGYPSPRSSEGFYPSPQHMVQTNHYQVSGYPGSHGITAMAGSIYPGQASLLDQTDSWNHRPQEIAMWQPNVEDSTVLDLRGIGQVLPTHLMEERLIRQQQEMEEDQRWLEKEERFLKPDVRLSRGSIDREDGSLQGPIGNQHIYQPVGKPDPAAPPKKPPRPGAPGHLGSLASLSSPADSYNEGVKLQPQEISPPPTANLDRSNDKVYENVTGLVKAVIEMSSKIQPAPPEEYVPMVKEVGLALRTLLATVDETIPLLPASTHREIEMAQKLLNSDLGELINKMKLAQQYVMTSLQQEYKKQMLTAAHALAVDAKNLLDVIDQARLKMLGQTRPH
Description: as §1

Tie2(h) = target: T3, Tie2(h) (Homo sapiens, UniProt Q02763); test: Inhibition of other kinases IC50 (Table 2); format: biochemical
T3 construct: purchased Caliper Life Sciences
T3 sequence (Q02763 23-1124): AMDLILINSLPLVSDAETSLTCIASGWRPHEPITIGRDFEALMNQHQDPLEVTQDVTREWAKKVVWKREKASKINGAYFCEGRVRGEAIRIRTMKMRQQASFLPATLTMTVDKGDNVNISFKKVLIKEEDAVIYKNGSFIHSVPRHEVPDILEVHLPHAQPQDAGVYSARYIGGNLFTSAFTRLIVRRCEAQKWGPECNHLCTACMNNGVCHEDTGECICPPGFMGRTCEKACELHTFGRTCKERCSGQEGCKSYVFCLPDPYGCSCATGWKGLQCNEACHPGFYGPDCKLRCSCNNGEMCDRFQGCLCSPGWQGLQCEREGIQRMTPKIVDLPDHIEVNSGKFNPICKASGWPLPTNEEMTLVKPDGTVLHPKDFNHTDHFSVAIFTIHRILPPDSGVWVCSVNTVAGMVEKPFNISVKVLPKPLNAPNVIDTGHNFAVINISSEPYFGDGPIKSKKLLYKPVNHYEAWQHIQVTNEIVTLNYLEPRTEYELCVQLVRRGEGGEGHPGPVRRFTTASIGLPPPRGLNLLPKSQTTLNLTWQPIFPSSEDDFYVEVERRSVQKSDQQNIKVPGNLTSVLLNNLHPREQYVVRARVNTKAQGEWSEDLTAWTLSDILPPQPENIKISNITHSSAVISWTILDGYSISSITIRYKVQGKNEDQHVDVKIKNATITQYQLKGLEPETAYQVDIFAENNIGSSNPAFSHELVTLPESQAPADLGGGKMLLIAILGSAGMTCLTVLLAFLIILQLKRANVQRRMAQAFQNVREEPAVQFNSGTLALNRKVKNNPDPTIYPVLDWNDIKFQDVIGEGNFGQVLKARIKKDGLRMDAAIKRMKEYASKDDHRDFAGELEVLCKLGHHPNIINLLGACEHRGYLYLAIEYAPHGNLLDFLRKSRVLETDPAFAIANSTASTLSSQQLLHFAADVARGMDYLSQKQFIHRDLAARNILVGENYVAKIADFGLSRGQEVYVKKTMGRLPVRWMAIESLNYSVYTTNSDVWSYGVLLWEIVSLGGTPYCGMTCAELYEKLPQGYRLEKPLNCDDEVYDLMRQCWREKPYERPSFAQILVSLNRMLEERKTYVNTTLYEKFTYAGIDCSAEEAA
Description: as §1

IRAK4(h) = target: T4, IRAK4(h) (Homo sapiens, UniProt Q9NWZ3); test: Inhibition of other kinases IC50 (Table 2); format: biochemical
T4 construct: purchased Caliper Life Sciences
T4 sequence (Q9NWZ3 1-460): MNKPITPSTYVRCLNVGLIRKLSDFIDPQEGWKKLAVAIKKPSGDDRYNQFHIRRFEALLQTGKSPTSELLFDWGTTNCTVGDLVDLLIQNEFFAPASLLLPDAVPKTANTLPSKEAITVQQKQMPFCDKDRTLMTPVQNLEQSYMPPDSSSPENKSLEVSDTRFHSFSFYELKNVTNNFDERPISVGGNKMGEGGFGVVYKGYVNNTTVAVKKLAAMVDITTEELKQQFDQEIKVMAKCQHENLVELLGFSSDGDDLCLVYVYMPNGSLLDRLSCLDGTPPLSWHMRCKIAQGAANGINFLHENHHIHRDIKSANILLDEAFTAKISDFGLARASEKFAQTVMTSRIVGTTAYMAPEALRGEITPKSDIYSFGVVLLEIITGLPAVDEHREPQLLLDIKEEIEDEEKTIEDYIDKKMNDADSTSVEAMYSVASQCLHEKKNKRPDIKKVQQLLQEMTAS
Description: as §1

Pyk2(h) = target: T5, Pyk2(h) (Homo sapiens, UniProt Q14289); test: Inhibition of other kinases IC50 (Table 2); format: biochemical
T5 construct: purchased Caliper Life Sciences
T5 sequence (Q14289 whole entry): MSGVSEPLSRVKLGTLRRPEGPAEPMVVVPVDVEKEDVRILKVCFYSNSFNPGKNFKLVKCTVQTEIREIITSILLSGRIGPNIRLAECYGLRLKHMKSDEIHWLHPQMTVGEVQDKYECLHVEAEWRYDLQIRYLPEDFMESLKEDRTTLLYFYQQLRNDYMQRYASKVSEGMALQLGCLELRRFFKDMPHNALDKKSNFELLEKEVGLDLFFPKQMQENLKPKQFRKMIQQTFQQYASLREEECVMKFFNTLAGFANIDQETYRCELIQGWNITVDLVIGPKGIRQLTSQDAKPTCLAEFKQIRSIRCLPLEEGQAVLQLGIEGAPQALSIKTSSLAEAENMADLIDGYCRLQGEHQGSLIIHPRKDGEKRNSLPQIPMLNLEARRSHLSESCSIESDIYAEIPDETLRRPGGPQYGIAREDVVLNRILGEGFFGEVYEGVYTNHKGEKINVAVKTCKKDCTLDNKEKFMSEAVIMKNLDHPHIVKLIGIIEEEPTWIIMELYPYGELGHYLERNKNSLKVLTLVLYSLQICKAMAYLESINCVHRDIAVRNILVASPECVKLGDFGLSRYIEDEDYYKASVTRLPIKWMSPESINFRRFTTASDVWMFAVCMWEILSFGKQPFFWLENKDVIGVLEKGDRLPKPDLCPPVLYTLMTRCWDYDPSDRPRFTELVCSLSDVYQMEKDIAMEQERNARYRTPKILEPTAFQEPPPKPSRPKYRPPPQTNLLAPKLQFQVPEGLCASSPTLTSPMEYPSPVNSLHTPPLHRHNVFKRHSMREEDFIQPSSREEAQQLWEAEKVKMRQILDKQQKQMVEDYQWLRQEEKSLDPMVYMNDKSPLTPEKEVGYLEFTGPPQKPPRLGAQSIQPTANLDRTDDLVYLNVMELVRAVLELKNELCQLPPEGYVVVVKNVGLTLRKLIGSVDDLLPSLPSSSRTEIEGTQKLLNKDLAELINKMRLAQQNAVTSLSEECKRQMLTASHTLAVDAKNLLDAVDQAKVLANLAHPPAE
Description: as §1

Ret(h) = target: T6, Ret(h) (Homo sapiens, UniProt P07949); test: Inhibition of other kinases IC50 (Table 2); format: biochemical
T6 construct: purchased Caliper Life Sciences
T6 sequence (P07949 29-1114): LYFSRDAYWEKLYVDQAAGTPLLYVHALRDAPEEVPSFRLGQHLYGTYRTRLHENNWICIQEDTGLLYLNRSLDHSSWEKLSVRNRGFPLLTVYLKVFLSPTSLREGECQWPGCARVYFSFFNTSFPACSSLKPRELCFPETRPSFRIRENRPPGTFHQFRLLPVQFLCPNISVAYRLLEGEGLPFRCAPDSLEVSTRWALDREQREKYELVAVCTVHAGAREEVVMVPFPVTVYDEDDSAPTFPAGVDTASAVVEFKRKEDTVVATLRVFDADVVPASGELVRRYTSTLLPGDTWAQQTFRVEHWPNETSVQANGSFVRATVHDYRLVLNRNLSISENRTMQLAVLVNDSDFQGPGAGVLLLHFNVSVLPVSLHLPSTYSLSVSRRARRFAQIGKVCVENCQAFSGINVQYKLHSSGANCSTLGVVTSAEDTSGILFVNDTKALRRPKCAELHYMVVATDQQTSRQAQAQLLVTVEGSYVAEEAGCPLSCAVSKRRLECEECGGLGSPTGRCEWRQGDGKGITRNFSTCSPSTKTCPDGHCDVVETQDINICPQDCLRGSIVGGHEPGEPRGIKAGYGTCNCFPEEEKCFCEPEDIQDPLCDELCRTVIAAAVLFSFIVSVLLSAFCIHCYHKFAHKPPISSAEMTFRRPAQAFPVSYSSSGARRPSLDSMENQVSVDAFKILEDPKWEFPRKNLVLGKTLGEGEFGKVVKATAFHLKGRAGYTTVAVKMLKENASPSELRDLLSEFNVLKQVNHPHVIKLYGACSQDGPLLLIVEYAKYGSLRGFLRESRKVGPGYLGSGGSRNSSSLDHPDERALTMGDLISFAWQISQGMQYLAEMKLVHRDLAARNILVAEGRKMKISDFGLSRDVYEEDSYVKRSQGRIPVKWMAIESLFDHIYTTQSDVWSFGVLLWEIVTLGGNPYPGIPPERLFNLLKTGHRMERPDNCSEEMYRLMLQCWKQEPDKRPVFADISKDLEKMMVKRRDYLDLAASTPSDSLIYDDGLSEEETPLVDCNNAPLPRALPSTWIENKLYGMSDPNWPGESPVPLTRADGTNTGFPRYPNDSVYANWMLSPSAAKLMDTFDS
Description: as §1

Kinase Inhibition Profile (not incl. Aurora) # kinases hit/# kinases tested [1] | IC50 (A549) [nM] | IC50 (Aurora A) [nM] | IC50 (MiaPaca2) [nM] | IC50 (Aurora B) [nM] | IC50 (FAK(h)) [nM] | IC50 (Tie2(h)) [nM] | IC50 (IRAK4(h)) [nM] | IC50 (Pyk2(h)) [nM] | IC50 (Ret(h)) [nM] | SMILES | ring closure, yield of all isomers ([2]; from NC(=O)[C@H]1[C@@H]2CC(CNCc3cccc(N)c3)[C@@H](C2)[C@H]1Nc1nc(Cl)ncc1F) [%] | ring closure, yield of all isomers ([2]; from NC(=O)[C@H]1[C@@H]2CC(CNCCc3cccc(N)c3)[C@@H](C2)[C@H]1Nc1nc(Cl)ncc1F) [%]
1/50 at 1 μM | 1 to 100 | 101 to 1000 | 1 to 100 | 1 to 100 |  |  |  |  |  | NC(=O)[C@H]1[C@@H]2CC3CNCc4cccc(c4)Nc4ncc(F)c(n4)N[C@@H]1[C@@H]3C2 (some centres unmarked) | 7.6 | 
1/53 at 1 μM | 101 to 1000 | 101 to 1000 | 101 to 1000 | 1 to 100 |  |  |  |  |  | NC(=O)[C@H]1[C@@H]2CC3CNCCc4cccc(c4)Nc4ncc(F)c(n4)N[C@@H]1[C@@H]3C2 (some centres unmarked) |  | 18.5
 |  |  |  |  | 101 to 1000 | 1000 to 6250 | 1 to 100 | 101 to 1000 | 1000 to 6250 | NC(=O)[C@H]1[C@H]2C[C@H]3[C@H]1Nc1nc(ncc1F)Nc1cccc(c1)CCS[C@@H]3C2 [Example 18] |  | 
